# Measured values as given in PMC12332667, “Role of Structural Modifications in Peptidomimetic Compounds as Potential Antimicrobial Agents against Staphylococcus aureus and Streptococcus pyogenes: Balancing Bioavailability, Safety, and Antimicrobial Activity” (ACS Omega, 2025).
# Where “and” joins values, the source holds several entries; their conditions need not be identical. Equal values may be shown once.
# What was measured:
# S. mutans c.i. = assay: MIC/MBC broth microdilution, S. mutans; assay type: cell-based, Streptococcus mutans
# How it was run: (§1)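 Bacteria inoculated at about 10^5 CFU/mL in BHI broth and incubated 18 h at 37 °C with serial dilutions of peptidomimetics, NCCLS microdilution format. MBC taken as lowest concentration leaving no more than 3 colonies (≥99.9% kill); MIC as lowest concentration without obvious growth (≥90% of untreated); solvent controls included.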
# P. vulgaris ATCC 6896 = assay: MIC/MBC broth microdilution, P. vulgaris; assay type: cell-based, Proteus vulgaris
# How it was run: as §1
# S. agalactiae ATCC 27956 = assay: MIC/MBC broth microdilution, S. agalactiae; assay type: cell-based, Streptococcus agalactiae; settings: S. agalactiae
# How it was run: as §1
# fibroblasts (46BR.1N) = assay: LDH cytotoxicity test, fibroblasts; assay type: cell-based
# How it was run: (§2)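 Cytotoxicity as LDH release after 48 h serum-free treatment (50, 100, 150 μg/mL peptidomimetics) of 46BR.1N fibroblasts or HaCaT keratinocytes seeded at 5000 per well. Absorbance 450 nm; untreated set as 0% and Triton X-100 1% as maximal release; Mann–Whitney U test, p ≤ 0.05.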
# [1] = test system: immortalized human HaCaT keratinocytes; assay: XTT cell proliferation assay, keratinocytes; assay type: cell-based; settings: for effect on proliferation, in words: 48 and 72 h, 0.01–150 μg/mL
# How it was run: (§3)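 Proliferation was read as XTT absorbance at 490 nm after 4 h of reagent incubation, following 48 or 72 h of peptide exposure in serum-free HG-DMEM (37 °C, 5% CO2). The 72 h arm included a half-medium change with second peptide dose at 48 h. Significance by Mann–Whitney U, p ≤ 0.05.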
# P. aeruginosa ATCC 10145 = assay: MIC/MBC broth microdilution, P. aeruginosa; assay type: cell-based
# How it was run: as §1
# E. coli ATCC 25922 = assay: MIC/MBC broth microdilution, E. coli; assay type: cell-based, Escherichia coli
# How it was run: as §1
# [2] = test system: K. pneumoniae ATCC 700603; assay: MIC/MBC broth microdilution, K. pneumoniae; assay type: cell-based
# How it was run: as §1
# S. pyogenes ATCC 19615 = assay: MIC/MBC broth microdilution, S. pyogenes; assay type: cell-based, Streptococcus pyogenes; settings: S. pyogenes
# How it was run: as §1
# E. faecalis c.i. = assay: MIC/MBC broth microdilution, E. faecalis; assay type: cell-based, Enterococcus faecalis
# How it was run: as §1
# S. aureus ATCC 43300 = assay: MIC/MBC broth microdilution, S. aureus; assay type: cell-based, Staphylococcus aureus; settings: S. aureus
# S. schleiferi c.i. = assay: MIC/MBC broth microdilution, S. schleiferi; assay type: cell-based, Staphylococcus schleiferi
# How it was run: as §1
# [3] = Hydrophobicity by reverse-phase chromatography; assay type: physicochemical; settings: acetonitrile content in the mobile phase at the retention time
# From the text: Reverse-phase chromatography was employed to assess the hydrophobicity characteristics of the peptidomimetics. Hydrophobicity was quantified by determining the acetonitrile content in the mobile phase at the retention time of a peptidyl derivative (Table S2). The least hydrophobic compound (40% acetonitrile) was A-198, which aligns with the calculations of hydrophobicity by SwissADME and pkCSM (Table ). Next in the hydrophobicity sequence were A-197, A-220, A-219, A-174, and A-221, eluting with 42.5-43.9% of acetonitrile. Then there were followed by […], and A-179, with the acetonitrile percentage of 44.8-49.8. The compounds A-176, A-20, A-152, A-134, and A-210 needed over 50% of acetonitrile to be eluted from the column.
# [4] = test system: human dermal fibroblast cell line (46BR.1N); assay: XTT cell proliferation assay, fibroblasts; assay type: cell-based; settings: for effect on proliferation, in words: 48 and 72 h, 0.01–150 μg/mL
# How it was run: as §3
# S. cohnii c.i. = assay: MIC/MBC broth microdilution, S. cohnii; assay type: cell-based, Staphylococcus cohnii
# How it was run: as §1
# [5] = test system: immortalized human keratinocytes (HaCaT); assay: LDH cytotoxicity test, keratinocytes; assay type: cell-based
# How it was run: as §2
# S. intemrdius c.i. = assay: MIC/MBC broth microdilution, S. intermedius; assay type: cell-based, Staphylococcus intermedius
# How it was run: as §1
# [6] = 48 h, 50, 100 and 150 μg/mL, vs 1% Triton X-100
# [7] = A-196 0.01–10 μg/mL, A-219 above 0.1 μg/mL, A-213 lower concentrations
structure (smiles),measurement,setting,value
C=CCC(=O)NC[C@@H](NC(=O)[C@H](CC(C)C)NC(=O)[C@H](CCCNC(=N)N)NC(=O)OCc1ccccc1)C(C)C [Compound A-209],MBC,S. mutans c.i.; H2O,256 µg/mL
same,MBC,S. mutans c.i.; water additive DMSO,256 µg/mL
same,MBC,S. mutans c.i.; water additive EtOH,256 µg/mL
same,MIC,P. vulgaris ATCC 6896; H2O,> 512 µg/mL
same,MIC,P. vulgaris ATCC 6896; water additive DMSO,> 512 µg/mL
same,MIC,P. vulgaris ATCC 6896; water additive EtOH,> 512 µg/mL
same,MIC,S. agalactiae ATCC 27956; H2O,> 512 µg/mL
same,MIC,S. agalactiae ATCC 27956; water additive DMSO,> 512 µg/mL
same,MIC,S. agalactiae ATCC 27956; water additive EtOH,> 512 µg/mL
same,cytotoxicity (LDH),fibroblasts (46BR.1N); [6],10–15%
same,concentration at which cytotoxic effect starts,"fibroblasts (46BR.1N); LDH, 48 h",> 150 µg/mL and 150 µg/mL
same,"effect on proliferation, in words",[1]; XTT,did not exert any negative impact
same,MIC,P. aeruginosa ATCC 10145; H2O,> 512 µg/mL
same,MIC,P. aeruginosa ATCC 10145; water additive DMSO,> 512 µg/mL
same,MIC,P. aeruginosa ATCC 10145; water additive EtOH,> 512 µg/mL
same,MIC,E. coli ATCC 25922; H2O,> 512 µg/mL
same,MIC,E. coli ATCC 25922; water additive DMSO,> 512 µg/mL
same,MIC,E. coli ATCC 25922; water additive EtOH,> 512 µg/mL
same,MIC,[2]; H2O,> 512 µg/mL
same,MIC,[2]; water additive DMSO,> 512 µg/mL
same,MIC,[2]; water additive EtOH,> 512 µg/mL
same,MIC,S. pyogenes ATCC 19615; H2O,> 512 µg/mL
same,MIC,S. pyogenes ATCC 19615; water additive DMSO,> 512 µg/mL
same,MIC,S. pyogenes ATCC 19615; water additive EtOH,> 512 µg/mL
same,MIC,E. faecalis c.i.; H2O,> 512 µg/mL
same,MIC,E. faecalis c.i.; water additive DMSO,> 512 µg/mL
same,MIC,E. faecalis c.i.; water additive EtOH,> 512 µg/mL
same,MIC,S. aureus ATCC 43300; H2O,> 512 µg/mL
same,MIC,S. aureus ATCC 43300; water additive DMSO,> 512 µg/mL
same,MIC,S. aureus ATCC 43300; water additive EtOH,> 512 µg/mL
same,MBC,S. schleiferi c.i.; H2O,512 µg/mL
same,MIC,S. schleiferi c.i.; H2O,256 µg/mL
same,MBC,S. schleiferi c.i.; water additive DMSO,512 µg/mL
same,MIC,S. schleiferi c.i.; water additive DMSO,256 µg/mL
same,MBC,S. schleiferi c.i.; water additive EtOH,512 µg/mL
same,MIC,S. schleiferi c.i.; water additive EtOH,256 µg/mL
same,% AcCN (acetonitrile required for elution from the column),[3],49.6% and 44.8–49.8%
same,"effect on proliferation, in words",[4]; XTT,did not exert any negative impact
same,MIC,S. cohnii c.i.; H2O,> 512 µg/mL
same,MIC,S. cohnii c.i.; water additive DMSO,> 512 µg/mL
same,MIC,S. cohnii c.i.; water additive EtOH,> 512 µg/mL
same,cytotoxicity (LDH),[5]; [6],10–15%
same,concentration at which cytotoxic effect starts,"[5]; LDH, 48 h",> 150 µg/mL and 150 µg/mL
CC[C@@H](CNC(=O)/C=C/c1ccccc1)NC(=O)[C@H](CC(C)C)NC(=O)[C@H](CCCNC(=N)N)NC(=O)OCc1ccccc1 [Compound A-213],MBC,S. mutans c.i.; H2O,8 µg/mL
same,MIC,S. mutans c.i.; H2O,4 µg/mL
same,MBC,S. mutans c.i.; water additive DMSO,8 µg/mL
same,MIC,S. mutans c.i.; water additive DMSO,4 µg/mL
same,MBC,S. mutans c.i.; water additive EtOH,8 µg/mL
same,MIC,S. mutans c.i.; water additive EtOH,4 µg/mL
same,MIC,P. vulgaris ATCC 6896; H2O,> 512 µg/mL
same,MIC,P. vulgaris ATCC 6896; water additive DMSO,> 512 µg/mL
same,MIC,P. vulgaris ATCC 6896; water additive EtOH,> 512 µg/mL
same,MIC,S. intemrdius c.i.; H2O,32 µg/mL
same,MIC,S. intemrdius c.i.; water additive DMSO,32 µg/mL
same,MIC,S. intemrdius c.i.; water additive EtOH,32 µg/mL
same,cytotoxicity (LDH) at 150 μg/mL,"fibroblasts (46BR.1N); 48 h, 150 μg/mL",~10%
same,pro-proliferative effect above control,[1]; [7],20–30%
same,proliferation relative to control at 150 μg/mL (highest tested concentration),"[1]; XTT, 150 μg/mL",around 25%
same,"effect on proliferation, in words",[1]; XTT,pro-proliferating effect at lower concentrations followed by an antiproliferative effect at higher concentrations
same,MIC,P. aeruginosa ATCC 10145; H2O,512 µg/mL
same,MBC,P. aeruginosa ATCC 10145; water additive DMSO,512 µg/mL
same,MIC,P. aeruginosa ATCC 10145; water additive DMSO,256 µg/mL
same,MBC,P. aeruginosa ATCC 10145; water additive EtOH,256 µg/mL
same,MIC,P. aeruginosa ATCC 10145; water additive EtOH,256 µg/mL
same,MBC,E. coli ATCC 25922; H2O,256 µg/mL
same,MIC,E. coli ATCC 25922; H2O,256 µg/mL
same,MBC,E. coli ATCC 25922; water additive DMSO,512 µg/mL
same,MIC,E. coli ATCC 25922; water additive DMSO,256 µg/mL
same,MBC,E. coli ATCC 25922; water additive EtOH,256 µg/mL
same,MIC,E. coli ATCC 25922; water additive EtOH,256 µg/mL
same,MIC,[2]; H2O,> 512 µg/mL
same,MIC,[2]; water additive DMSO,512 µg/mL
same,MIC,[2]; water additive EtOH,512 µg/mL
same,MBC,E. faecalis c.i.; H2O,256 µg/mL
same,MIC,E. faecalis c.i.; H2O,256 µg/mL
same,MBC,E. faecalis c.i.; water additive DMSO,256 µg/mL
same,MIC,E. faecalis c.i.; water additive DMSO,256 µg/mL
same,MBC,E. faecalis c.i.; water additive EtOH,256 µg/mL
same,MIC,E. faecalis c.i.; water additive EtOH,256 µg/mL
same,MBC,S. schleiferi c.i.; H2O,32 µg/mL
same,MIC,S. schleiferi c.i.; H2O,32 µg/mL
same,MBC,S. schleiferi c.i.; water additive DMSO,32 µg/mL
same,MIC,S. schleiferi c.i.; water additive DMSO,16 µg/mL
same,MBC,S. schleiferi c.i.; water additive EtOH,32 µg/mL
same,MIC,S. schleiferi c.i.; water additive EtOH,32 µg/mL
same,% AcCN (acetonitrile required for elution from the column),[3],54.6%
same,pro-proliferative effect above control,[4]; [7],20–30%
same,proliferation relative to control at 150 μg/mL (highest tested concentration),"[4]; XTT, 150 μg/mL",around 25%
same,"effect on proliferation, in words",[4]; XTT,pro-proliferating effect at lower concentrations followed by an antiproliferative effect at higher concentrations
same,cytotoxicity (LDH) at 150 μg/mL,"[5]; 48 h, 150 μg/mL",~10%
